From US8299123B2, “CCR10 antagonists” (Boehringer Ingelheim International GmbH, priority 2007, dated 2012)

SMILES: CCCCOc1ccc(Cl)cc1C(=O)N[C@H]1C[C@@H]1c1ccc(-c2ccc(C(=O)O)cc2)cc1 [Compound 108, 4′-{(1R,2S)-2-[(2-butoxy-5-chlorobenzoyl)amino]cyclopropyl}-biphenyl-4-carboxylic acid]
- melting point: 218 to 222 °C
